In US20120202801A1, “METHODS FOR TREATING BREAST CANCER” (priority 2009, published 2012):
Like-named read-outs stand apart in the source and are kept apart here.

Assays:
[1] = In vitro plasma protein binding of 14C-Compound #10; type: in vitro ADME, mice, rats, dogs, monkeys, and humans; details: mouse, rat, dog, monkey, human, all species, read-out: plasma protein binding, overall mean
[2] = tested on: soluble VEGF121 and VEGF165 isoforms; assay: ELISA of soluble VEGF production in multiple human tumor cell lines (EC50); type: cell-based
Experimental: Study Design. […] In these experiments, cultures were established under normoxic conditions (21% oxygen). […] Cells requiring induction of VEGF production were incubated under hypoxic conditions (1% oxygen). At the completion of treatment, the conditioned media were collected and assayed by ELISA (as described in Section 9.1.1.1) for soluble VEGF121 and VEGF165 isoforms; results were calculated as percentage inhibition relative to vehicle treated controls. EC50 values were calculated from the dose concentration response curves.

[3] = Dose response assessment in nude mice bearing HT1080 xenografts (tumor and plasma human VEGF, tumor size, trough plasma concentration); type: in vivo; details: male, athymic nude, mouse, plasma, oral; 1 mg/kg BID, 16 hours after the first day of dosing (n=3)
Experimental: Experimental Study Design. HT1080 cells (5×10^6 cells/mouse) were implanted subcutaneously in male athymic nude mice.
Tumor size was measured using calipers at periodic intervals during the study (data shown in Section 9.2.2). […] Mice were sacrificed, and excised tumors were homogenized in buffer containing protease inhibitors. Both terminal intratumoral and pathologic plasma human VEGF levels were measured using an ELISA that recognizes human VEGF121 and VEGF165 (as described in Section 9.1.1.1). Intratumoral VEGF levels were normalized to the total tumor protein concentration, while pathologic plasma human VEGF levels were expressed in pg/mL of plasma.
Experimental Design. The experimental design was reported in Section 9.1.2.2.

[4] = rat, in vivo
[5] = Single-dose oral toxicity study in rats; details: Sprague Dawley, rat, in vivo
Experimental: The L23 vehicle was used.
Because maximal exposure occurred at 100 mg/kg, this dose is considered the NOAEL for 1 day of dosing.

## COc1ccc([C@H]2c3[nH]c4ccc(Cl)cc4c3CCN2C(=O)Oc2ccc(Cl)cc2)cc1 (racemic) [Compound #10]
[1]
  fraction unbound: ≤ 0.005
[2]; A-375, Melanoma, A375, hypoxic (1% oxygen), 48 hours, read-out: VEGF Inhibition Approximate EC50
  EC50: ~50 nM
[2]; A-431, Epidermoid, A431, 48 hours, read-out: VEGF Inhibition Approximate EC50
  EC50: ~10 nM
[2]; ASPC1, ASPC-1 (Pancreas), 48 hours, read-out: VEGF Inhibition EC50
  EC50: > 30000 nM
[2]; Breast, MDA-MB-468, hypoxic (1% oxygen), 48 hours, read-out: VEGF Inhibition Approximate EC50
  EC50: ~5 nM
[2]; Cervical, HeLa, hypoxic (1% oxygen), 48 hours, read-out: VEGF Inhibition Approximate EC50
  EC50: ~2 nM
[2]; Colorectal, HCT-116, 48 hours, read-out: VEGF Inhibition Approximate EC50
  EC50: ~10 nM
[2]; Gastric, AGS, 48 hours, read-out: VEGF Inhibition Approximate EC50
  EC50: ~0.1 nM
[2]; Gastric, Kato III, hypoxic (1% oxygen), 48 hours, read-out: VEGF Inhibition Approximate EC50
  EC50: ~10 nM
[2]; HCT-116, HCT116 (Colorectal), 48 hours, read-out: VEGF Inhibition EC50
  EC50: 10 nM
[2]; HEK293 (Renal cell), 48 hours, read-out: VEGF Inhibition EC50
  EC50: 10 nM
[2]; HPAF-2 (Pancreas), 48 hours, read-out: VEGF Inhibition EC50
  EC50: > 30000 nM
[2]; HT-1080, Fibrosarcoma, HT1080, 48 hours, read-out: VEGF Inhibition Approximate EC50
  EC50: ~10 nM
[2]; HT-1080, HT1080 (Fibrosarcoma), 48 hours, read-out: VEGF Inhibition EC50
  EC50: 10 nM
[2]; HeLa (Cervical), 48 hours, read-out: VEGF Inhibition EC50
  EC50: 2 nM
[2]; Lung, A549, 48 hours, read-out: VEGF Inhibition Approximate EC50
  EC50: ~50 nM
[2]; Lung, Calu-6, hypoxic (1% oxygen), 48 hours, read-out: VEGF Inhibition Approximate EC50
  EC50: ~7 nM
[2]; Lung, NCI H460, 48 hours, read-out: VEGF Inhibition Approximate EC50
  EC50: ~10 nM
[2]; MDA-MB-231, 48 h, read-out: VEGF Inhibition Approximate EC50
  EC50: ~5 nM
[2]; NCI H460 (Lung), 48 hours, read-out: VEGF Inhibition EC50
  EC50: 10 nM
[2]; Neuroblastoma, SY5Y, hypoxic (1% oxygen), 48 hours, read-out: VEGF Inhibition Approximate EC50
  EC50: ~5 nM
[2]; PL45, PL-45 (Pancreas), 48 hours, read-out: VEGF Inhibition EC50
  EC50: > 30000 nM
[2]; Pancreas, Capan-1, hypoxic (1% oxygen), 48 hours, read-out: VEGF Inhibition Approximate EC50
  EC50: ~5 nM
[2]; Prostate, LNCaP, hypoxic (1% oxygen), 48 hours, read-out: VEGF Inhibition Approximate EC50
  EC50: ~15 nM
[2]; Renal cell, HEK293, 48 hours, read-out: VEGF Inhibition Approximate EC50
  EC50: ~10 nM
[2]; SK-OV-3, Ovarian, SKOV3, hypoxic (1% oxygen), 48 hours, read-out: VEGF Inhibition Approximate EC50
  EC50: ~10 nM
[2]; SNU1, Gastric, SNU-1, 48 hours, read-out: VEGF Inhibition Approximate EC50
  EC50: ~0.1 nM
[2]; U-87MG (Glioblastoma), 48 hours, read-out: VEGF Inhibition EC50
  EC50: > 30000 nM
[3]
  concentration at 16 h: 280 nM
[4]; both, Sprague Dawley, 7 days
  dose of maximal exposures: 120 mg/kg/day
[4]
  elevation in mean cholesterol levels: 2.5-3 fold
  elevation in mean glucose levels: about 1.3 fold
[5]
  dose of maximal exposure: 100 mg/kg
